Laboratory results from patent US20240358693A1, “METHODS OF TREATING PAIN” (Aisa Pharma, Inc., priority 2023, published 2024).

Test system: participants with SSc-RP
Assay: Average severity of weekly RP attacks (VAS 0-10 cm scale)
Format: in vivo, human
From the text: The absolute change in average severity of weekly RP attacks (VAS 0-10 cm scale) from baseline to the end of each Dosing Period was and will be a secondary outcome variable. The sponsor-developed participant-informed diary will be used to record data. Average severity of weekly RP attacks is defined as the total severity scores of RP attacks divided by total number of RP attacks within the last 7 days of each dosing period. Total severity scores of RP attacks during the last 7 days of screening period divided by the total number of RP attacks will be used as baseline for the analysis of all periods. The variable will be calculated similar to frequency data as before.

[1] = Excluding Outliers, Tadalafil 5 mg, second Baseline RCS subgroup block (not named), ITT Part A
[2] = Excluding Outliers, Tadalafil 5 mg, second Baseline RCS subgroup block (not named), ITT Part A, score 0-10
[3] = Tadalafil 5 mg, n=1, Excluding Outliers, ITT Population - Part A
[4] = Tadalafil 5 mg, n=2, ITT Population - Part A
[5] = Tadalafil 5 mg, n=2, by Baseline RCS, second subgroup, ITT Population - Part A
[6] = Tadalafil 5 mg, Excluding Outliers, ITT Population - Part A
[7] = Tadalafil 5 mg, Excluding Outliers, by Baseline RCS, second subgroup, ITT Population - Part A
[8] = Tadalafil 5 mg, ITT Population - Part A
[9] = Tadalafil 5 mg, second Baseline RCS subgroup block (not named), ITT Part A
[10] = Tadalafil 5 mg, second Baseline RCS subgroup block (not named), ITT Part A, score 0-10

Q: Which results are given for `CN1CC(=O)N2[C@H](c3ccc4c(c3)OCO4)c3[nH]c4ccccc4c3C[C@@H]2C1=O` [Tadalafil, tadalafil]?
A: Average Severity of Weekly RP Attacks (All Attacks), Percent Change from Baseline, Mean [1]: −20.69%; Average Severity of Weekly RP Attacks (All Attacks), Percent Change from Baseline, Median [1]: −20.69%; Average Severity of Weekly RP Attacks (All Attacks), Change from Baseline, Mean [2]: −1.19; Average Severity of Weekly RP Attacks (All Attacks), Change from Baseline, Median [2]: −1.19; Average Severity of Weekly RP Attacks (All Attacks), Mean [2]: 4.56; Average Severity of Weekly RP Attacks (All Attacks), Median [2]: 4.56; Average Severity (0-10) of Weekly Symptomatic RP Attacks, Mean [3]: 4.67; Average Severity (0-10) of Weekly Symptomatic RP Attacks, Median [3]: 4.67; Average Severity of Weekly Symptomatic RP Attacks, Change from Baseline, Mean [3]: −1.32; Average Severity of Weekly Symptomatic RP Attacks, Change from Baseline, Median [3]: −1.32; Average Severity of Weekly Symptomatic RP Attacks, Percent Change from Baseline, Mean [3]: −22.01%; Average Severity of Weekly Symptomatic RP Attacks, Percent Change from Baseline, Median [3]: −22.01%; Average Severity (0-10) of Weekly Symptomatic RP Attacks, Mean [4]: 7.08; Average Severity (0-10) of Weekly Symptomatic RP Attacks, Median [4]: 7.08; Average Severity of Weekly Symptomatic RP Attacks, Change from Baseline, Mean [4]: −0.60; Average Severity of Weekly Symptomatic RP Attacks, Change from Baseline, Median [4]: −0.60; Average Severity of Weekly Symptomatic RP Attacks, Percent Change from Baseline, Mean [4]: −10.43%; Average Severity of Weekly Symptomatic RP Attacks, Percent Change from Baseline, Median [4]: −10.43%; Average Severity (0-10) of Weekly Symptomatic RP Attacks, Mean [5]: 7.08; Average Severity (0-10) of Weekly Symptomatic RP Attacks, Median [5]: 7.08; Average Severity of Weekly Symptomatic RP Attacks, Change from Baseline, Mean [5]: −0.60; Average Severity of Weekly Symptomatic RP Attacks, Change from Baseline, Median [5]: −0.60; Average Severity of Weekly Symptomatic RP Attacks, Percent Change from Baseline, Mean [5]: −10.43%; Average Severity of Weekly Symptomatic RP Attacks, Percent Change from Baseline, Median [5]: −10.43%; Average Severity of Weekly RP Attacks (All Attacks), Change from Baseline, Mean [6]: −1.19; Average Severity of Weekly RP Attacks (All Attacks), Change from Baseline, Median [6]: −1.19; Average Severity of Weekly RP Attacks (All Attacks), Mean [6]: 4.56; Average Severity of Weekly RP Attacks (All Attacks), Median [6]: 4.56; Average Severity of Weekly RP Attacks (All Attacks), Percent Change from Baseline, Mean [6]: −20.69%; Average Severity of Weekly RP Attacks (All Attacks), Percent Change from Baseline, Median [6]: −20.69%; Average Severity of Weekly Symptomatic RP Attacks (Mean) [7]: 4.67; Average Severity of Weekly Symptomatic RP Attacks (Median) [7]: 4.67; Average Severity of Weekly Symptomatic RP Attacks, Change from Baseline, Mean [7]: −1.32; Average Severity of Weekly Symptomatic RP Attacks, Change from Baseline, Median [7]: −1.32; Average Severity of Weekly Symptomatic RP Attacks, Percent Change from Baseline, Mean [7]: −22.01%; Average Severity of Weekly Symptomatic RP Attacks, Percent Change from Baseline, Median [7]: −22.01%; Average Severity of Weekly RP Attacks (All Attacks), Change from Baseline, Mean [8]: −0.47; Average Severity of Weekly RP Attacks (All Attacks), Change from Baseline, Median [8]: −0.47; Average Severity of Weekly RP Attacks (All Attacks), Mean [8]: 7.02; Average Severity of Weekly RP Attacks (All Attacks), Median [8]: 7.02; Average Severity of Weekly RP Attacks (All Attacks), Percent Change from Baseline, Mean [8]: −8.97%; Average Severity of Weekly RP Attacks (All Attacks), Percent Change from Baseline, Median [8]: −8.97%; Average Severity of Weekly RP Attacks (All Attacks), Percent Change from Baseline, Mean [9]: −8.97%; Average Severity of Weekly RP Attacks (All Attacks), Percent Change from Baseline, Median [9]: −8.97%; Average Severity of Weekly RP Attacks (All Attacks), Change from Baseline, Mean [10]: −0.47; Average Severity of Weekly RP Attacks (All Attacks), Change from Baseline, Median [10]: −0.47; Average Severity of Weekly RP Attacks (All Attacks), Mean [10]: 7.02; Average Severity of Weekly RP Attacks (All Attacks), Median [10]: 7.02; reduction in severity (more severe disease at baseline (RCS>5.0), n=2 per treatment): 6.3%
